Results taken from article PMC10226046, “Prodrug Strategies for the Development of β-L-5-((E)-2-Bromovinyl)-1-((2S,4S)-2-(hydroxymethyl)-1,3-(dioxolane-4-yl))uracil (L-BHDU) against Varicella Zoster Virus (VZV)” (Journal of Medicinal Chemistry, 2023).
pEC50: −log10 of the molar value. Read-outs that look alike come from different tables or passages of the source.

Experiments:
[1] = Neutral red dye uptake cytotoxicity assay in ARPE-19 cells; settings: human
VZV-ORF57-Luc [2] = assay: microbe, parasite or virus in culture; settings: Human alphaherpesvirus 3, ARPE-19, cell-free VZV-ORF57-Luc, ARPE-19 cells, 72 hpi, bioluminescence imaging
[3] = tested on: human foreskin fibroblasts (HFFs); design: method as in PMID 25051026; settings: cited from earlier work
VZV [4] = tested on: VZV; design: method as in PMID 25051026; settings: VZV in human foreskin fibroblasts (HFFs); cited from earlier work
VZV-ORF57-Luc [5] = tested on: VZV-ORF57-Luc
[6] = Oral pharmacokinetic absorption study in BALB/c mice (plasma, LC-MS/MS); format: in vivo; settings: both sexes, mouse, analyte L-BHDU in plasma, 11.4 mg/kg L-BHDU oral, BALB/c mice
Description: A pharmacokinetic absorption study was performed in BALB/c mice (Charles River). A single equimolar dose of 22.5 mg/kg POM-L-BHDU-MP or 11.4 mg/kg L-BHDU was dissolved in Cremophor–dimethyl sulfoxide (DMSO)–saline (1:1:8) and administered by oral gavage to two groups of mice with equal numbers of male and female mice (N = 15 each male and female).
Plasma was separated from red blood cells and immediately frozen at −80 °C.
This animal protocol #282 was approved by the IACUC at SUNY Upstate Medical University, which has been fully accredited by AAALAC since 7/31/1999. This method was previously used to evaluate L-BHDU effects on 5-fluorouracil metabolism.[16] Briefly, a single equimolar dose of 22.5 mg/kg POM-L-BHDU-MP or 11.4 mg/kg L-BHDU was dissolved in Cremophor–DMSO–saline (1:1:8) and administered by oral gavage to two groups of BALB/c mice (Charles River) with equal numbers of male and female mice (N = 15 each male and female). Six untreated mice were used for blank controls and were labeled time 0. At 20, 40, 60, and 120 min, three mice from the POM-L-BHDU-MP group and three mice from the L-BHDU group were anesthetized with inhaled isoflurane and then exsanguinated by cardiac puncture. Blood samples were collected into a tube containing heparin. Plasma was separated from red blood cells by centrifugation at 10,000 rpm for 5 min. Plasma was transferred to a new tube and immediately frozen at −80 °C.
Plasma samples were thawed, and exactly 0.95 mL was removed for analysis. The internal standard azidothymidine was added to mouse plasma samples at a final concentration of 20 ng/mL. Proteins were precipitated from the plasma by adding 2× volumes of methanol, then the samples were clarified by centrifugation. The supernatants were dried using an N-EVAP 116 analytical nitrogen evaporator and then reconstituted with 50% methanol in water. LC-MS/MS was used to analyze the concentrations of POM-L-BHDU-MP, L-BHDU, and L-BHDU-MP. Calibration curves were made using BALB/c mouse plasma (Innovative Research, Inc. Novi MI) prior to analyzing the experimental samples.
The primary stock solutions for the calibration were prepared at 0.5 mg/mL for L-BHDU, 1 mg/mL for POM-L-BHDU-MP, and 1 mg/mL for L-BHDU-MP. The primary stock solutions were diluted to working solutions that were in turn used to spike the biological matrix of interest. L-BHDU calibration points were 100.0, 400.0, 800.0, 1000.0, 4000.0, 6000.0, 8000.0, 10,000.0, and 12,000.0 ng/mL. L-BHDU-MP calibration points were 100.0, 200.0, 400.0, 800.0, 1000.0, 2000.0, 4000.0, 6000.0, and 8000.0 ng/mL. The ISTD working solution of AZT was prepared at 20 ng/mL. The standard stock solutions were stored in −80 °C freezer until used. […] The samples were analyzed in a negative ESI mode. […]

VZV-ORF57-Luc [7] = assay: microbe, parasite or virus in culture; format: cell-based, Varicella zoster virus; settings: Human alphaherpesvirus 3, ARPE-19
VZV-ORF57-ΔTK = assay: microbe, parasite or virus in culture; format: cell-based, Varicella zoster virus; settings: Human alphaherpesvirus 3, ARPE-19
VZV [8] = settings: 15 mg/kg/day, SCID-hu mouse with human fetal skin xenografts; cited from earlier work
[9] = mouse, in vivo; cited from earlier work
VZV-ORF57-ΔTKTS = assay: microbe, parasite or virus in culture; format: cell-based, Varicella zoster virus; settings: Human alphaherpesvirus 3, ARPE-19
[10] = design: method as in PMID 25051026; settings: mice treated with L-BHDU; cited from earlier work
VZV-ORF57-ΔTS = assay: microbe, parasite or virus in culture; format: cell-based, Varicella zoster virus; settings: Human alphaherpesvirus 3, ARPE-19
[11] = design: method as in PMID 25051026; settings: measured in various mouse organs; cited from earlier work
[12] = selectivity index = CC50/EC50, ARPE-19 cells

CC(C)[C@@H](N)C(=O)OC[C@H]1OC[C@@H](n2cc(/C=C/Br)c(=O)[nH]c2=O)O1.Cl [L-BHDU-L-valine (17), L-BHDU-5′-O-L-valyl Ester Hydrochloride]
CC50 at 72 h [1]: > 100000 nM | pEC50 (VZV-ORF57-Luc [2]): 7.52 | CC50 [3]: > 200000 nM | pEC50 (VZV [4]): 7.52 | SI (CC50/EC50) (VZV-ORF57-Luc [5]): >3322 | pEC50 (VZV-ORF57-Luc [5]; cell-free VZV-ORF57-Luc, ARPE-19 cells, 72 hpi, bioluminescence imaging): 7.52 | SI (CC50/EC50) (VZV-ORF57-Luc [5]; [12]): >3322 | SI (CC50/EC50) (VZV-ORF57-Luc [5]; selectivity index = CC50/EC50, ARPE-19 cells, listed as 17): > 3322

O=c1[nH]c(=O)n([C@@H]2CO[C@H](CO)O2)cc1/C=C/Br [L-BHDU (1), β-L-5-((E)-2-bromovinyl)-1-((2S,4S)-2-(hydroxymethyl)-1,3-(dioxolane-4-yl))uracil]
CC50 at 72 h [1]: > 100000 nM | Cmax at 2 h [6]: 7100 ng/mL | Tmax at 2 h [6]: 2 h | AUC at 2 h ([6]; 0 to 120 min): 12700 ng·h/mL | pEC50 (VZV-ORF57-Luc [7]): 6.74 | pEC50 (VZV-ORF57-Luc [2]): 7.59 | pEC50 (VZV-ORF57-ΔTK): < 5.70 | effect on VZV replication (VZV [8]): effectively reduced VZV replication | not cytotoxic up to ([3]; HFFs): up to 200 μM | well tolerated up to (dose) [9]: up to 150 mg/kg | pEC50 (VZV-ORF57-ΔTKTS): < 5.70 | 5-FU accumulation in treated mice [10]: did not accumulate | pEC50 (VZV-ORF57-ΔTS): 7.55 | brain penetration [11]: did not penetrate the brain | SI (CC50/EC50) (VZV-ORF57-Luc [5]): >3878 | SI (CC50/EC50) (VZV-ORF57-Luc [5]; [12]): >3878
